Data: patent publication US20080051429A1, “USE OF 4-AMINO-PIPERIDINES FOR TREATING SLEEP DISORDERS” (priority 2006, published 2008)

Columns and labels:
Assay in all cases: R-SAT broad profiling
Assay type in all cases: cell-based
CCK-A = target: T1, CCK-A (Homo sapiens, UniProt P32238); conditions: agonist; read-out: pEC50/pIC50 (converted)
T1 construct: expressed in transfected cells; host or cells: NIH3T3
Method: (§1) The functional receptor assay, Receptor Selection and Amplification Technology (R-SAT), was used (with minor modifications from that previously described U.S. Pat. No. 5,707,798) to screen compounds for efficacy at the 5-HT2A receptor. Briefly, NIH3T3 cells were grown in 96 well tissue culture plates to 70-80% confluence. Cells were transfected for 12-16 hours with plasmid DNAs using superfect (Qiagen Inc.) as per manufacture's protocols. R-SAT's were generally performed with 50 ng/well of receptor and 20 ng/well of Beta-galactosidase plasmid DNA. All receptor and G-protein constructs used were in the pSI mammalian expression vector (Promega Inc) as described in U.S. Pat. No. 5,707,798. The 5HT2A receptor gene was amplified by nested PCR from brain cDNA using the oligodeoxynucleotides based on the published sequence (see Saltzman et. al. Biochem. Biophys. Res. Comm. 181:1469-78 (1991)). Large-scale transfections, cells were transfected for 12-16 hours, then trypsinized and frozen in DMSO. Frozen cells were later thawed, plated at 10,000-40,000 cells per well of a 96 well plate that contained drug. With both methods, cells were then grown in a humidified atmosphere with 5% ambient CO2 for five days. Media was then removed from the plates and marker gene activity was measured by the addition of the beta-galactosidase substrate ONPG (in PBS with 5% NP-40). The resulting colorimetric reaction was measured in a spectrophotometric plate reader (Titertek Inc.)at […]. All data were analyzed using the computer program XLFit (IDBSm). Efficacy is the percent maximal repression compared to repression by a control compound (ritanserin in the case of 5HT2A). pIC50 is the negative of the log(IC50), where IC50 is the calculated concentration in Molar that produces 50% maximal repression.
(§2) The R-SAT assay (described above in example 136) was used to investigate the selectivity of 2-(4-Methoxyphenyl)-N-(4-methylbenzyl)-N-(1-methylpiperidin-4-yl)acetamide hydrochloride.

alpha 2B = target: T2, alpha 2B (Homo sapiens, UniProt P18089); conditions: read-out: pEC50/pIC50 (converted)
T2 construct: expressed in transfected cells; host or cells: NIH3T3
T2 sequence (P18089 1-450): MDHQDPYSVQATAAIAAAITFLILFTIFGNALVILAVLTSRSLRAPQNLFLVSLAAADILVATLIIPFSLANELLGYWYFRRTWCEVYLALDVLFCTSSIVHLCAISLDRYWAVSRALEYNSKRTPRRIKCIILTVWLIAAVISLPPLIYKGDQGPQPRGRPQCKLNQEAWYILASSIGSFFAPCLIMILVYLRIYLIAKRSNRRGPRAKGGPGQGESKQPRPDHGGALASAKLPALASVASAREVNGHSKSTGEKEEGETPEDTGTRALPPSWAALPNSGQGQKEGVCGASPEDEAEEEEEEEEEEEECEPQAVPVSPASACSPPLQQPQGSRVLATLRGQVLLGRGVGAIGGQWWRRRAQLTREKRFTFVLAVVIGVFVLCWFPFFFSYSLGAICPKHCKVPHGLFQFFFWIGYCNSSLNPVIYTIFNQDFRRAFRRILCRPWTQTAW
Method: as §1, §2

D1 = target: T3, D1 (Homo sapiens, UniProt P21728); conditions: read-out: pEC50/pIC50 (converted)
T3 construct: expressed in transfected cells; host or cells: NIH3T3
T3 sequence (P21728 whole entry): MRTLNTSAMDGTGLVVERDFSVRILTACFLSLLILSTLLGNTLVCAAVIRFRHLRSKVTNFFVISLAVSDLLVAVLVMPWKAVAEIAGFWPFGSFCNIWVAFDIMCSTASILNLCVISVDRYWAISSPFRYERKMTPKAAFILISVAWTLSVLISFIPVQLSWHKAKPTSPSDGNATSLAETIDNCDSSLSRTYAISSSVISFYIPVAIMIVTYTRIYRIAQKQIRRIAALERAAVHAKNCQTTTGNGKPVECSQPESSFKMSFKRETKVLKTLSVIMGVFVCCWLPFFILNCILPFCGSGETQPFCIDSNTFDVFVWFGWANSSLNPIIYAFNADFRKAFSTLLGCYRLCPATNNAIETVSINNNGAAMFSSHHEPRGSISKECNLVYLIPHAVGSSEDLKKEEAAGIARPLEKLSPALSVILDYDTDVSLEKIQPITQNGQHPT
Method: as §1, §2

D3 = target: T4, D3 (Homo sapiens, UniProt P35462); conditions: read-out: pEC50/pIC50 (converted)
T4 construct: expressed in transfected cells; host or cells: NIH3T3
T4 sequence (P35462 whole entry): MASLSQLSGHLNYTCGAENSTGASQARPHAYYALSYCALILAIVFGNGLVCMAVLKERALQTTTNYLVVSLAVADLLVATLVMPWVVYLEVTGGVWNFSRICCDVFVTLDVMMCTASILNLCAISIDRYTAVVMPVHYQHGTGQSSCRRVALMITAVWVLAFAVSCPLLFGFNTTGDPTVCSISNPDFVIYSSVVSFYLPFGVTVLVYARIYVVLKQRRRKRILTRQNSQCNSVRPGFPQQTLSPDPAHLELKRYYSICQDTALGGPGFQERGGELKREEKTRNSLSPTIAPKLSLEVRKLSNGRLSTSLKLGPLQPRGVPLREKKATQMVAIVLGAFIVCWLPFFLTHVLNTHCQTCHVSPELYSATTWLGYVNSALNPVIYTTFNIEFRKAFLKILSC
Method: as §1, §2

m4 = target: T5, m4 (Homo sapiens, UniProt P08173); conditions: read-out: pEC50/pIC50 (converted)
T5 construct: expressed in transfected cells; host or cells: NIH3T3
T5 sequence (P08173 1-479): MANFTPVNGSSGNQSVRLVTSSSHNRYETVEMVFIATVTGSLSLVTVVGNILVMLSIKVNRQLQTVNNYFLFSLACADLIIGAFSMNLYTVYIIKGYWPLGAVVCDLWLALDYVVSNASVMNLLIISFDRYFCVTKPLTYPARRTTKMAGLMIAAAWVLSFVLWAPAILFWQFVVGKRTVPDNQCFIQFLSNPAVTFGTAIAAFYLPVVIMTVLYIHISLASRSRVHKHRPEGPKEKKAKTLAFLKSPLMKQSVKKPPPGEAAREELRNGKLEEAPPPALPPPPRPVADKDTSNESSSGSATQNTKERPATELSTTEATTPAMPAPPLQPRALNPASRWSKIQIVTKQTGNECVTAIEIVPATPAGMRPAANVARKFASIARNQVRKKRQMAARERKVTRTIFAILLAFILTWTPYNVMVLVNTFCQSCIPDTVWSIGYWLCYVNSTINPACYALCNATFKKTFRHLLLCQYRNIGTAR
Method: as §1, §2

m1 = target: T6, m1 (Homo sapiens, UniProt P11229); conditions: read-out: pEC50/pIC50 (converted)
T6 construct: expressed in transfected cells; host or cells: NIH3T3
T6 sequence (P11229 1-460): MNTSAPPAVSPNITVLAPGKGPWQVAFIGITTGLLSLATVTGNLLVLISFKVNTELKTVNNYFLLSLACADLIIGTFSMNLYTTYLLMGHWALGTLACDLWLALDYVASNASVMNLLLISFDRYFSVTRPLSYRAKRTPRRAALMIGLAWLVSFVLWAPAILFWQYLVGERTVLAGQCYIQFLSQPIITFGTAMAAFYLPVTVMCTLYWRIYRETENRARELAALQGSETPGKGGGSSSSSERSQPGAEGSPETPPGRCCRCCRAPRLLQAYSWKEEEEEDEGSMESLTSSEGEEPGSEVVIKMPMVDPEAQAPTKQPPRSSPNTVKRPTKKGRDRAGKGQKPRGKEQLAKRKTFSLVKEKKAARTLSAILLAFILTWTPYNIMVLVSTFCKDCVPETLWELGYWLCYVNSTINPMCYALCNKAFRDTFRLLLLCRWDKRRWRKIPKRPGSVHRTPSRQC
Method: as §1, §2

NK-1 = target: T7, NK-1 (Homo sapiens, UniProt P25103); conditions: agonist; read-out: pEC50/pIC50 (converted)
T7 construct: expressed in transfected cells; host or cells: NIH3T3
T7 sequence (P25103 whole entry): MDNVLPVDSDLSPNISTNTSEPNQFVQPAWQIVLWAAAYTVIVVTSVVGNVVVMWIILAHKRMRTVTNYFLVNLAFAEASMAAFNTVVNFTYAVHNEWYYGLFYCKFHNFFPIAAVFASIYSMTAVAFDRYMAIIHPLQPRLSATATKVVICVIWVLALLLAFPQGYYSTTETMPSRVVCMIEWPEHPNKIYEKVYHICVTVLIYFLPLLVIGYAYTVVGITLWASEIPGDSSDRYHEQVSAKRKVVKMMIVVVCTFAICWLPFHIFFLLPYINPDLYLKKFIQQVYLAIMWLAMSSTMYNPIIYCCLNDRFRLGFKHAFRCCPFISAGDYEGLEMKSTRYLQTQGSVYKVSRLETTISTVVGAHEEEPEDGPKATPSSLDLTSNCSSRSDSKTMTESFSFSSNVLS
Method: as §1, §2

m3 = target: T8, m3 (Homo sapiens, UniProt P20309); conditions: read-out: pEC50/pIC50 (converted)
T8 construct: expressed in transfected cells; host or cells: NIH3T3
T8 sequence (P20309 whole entry): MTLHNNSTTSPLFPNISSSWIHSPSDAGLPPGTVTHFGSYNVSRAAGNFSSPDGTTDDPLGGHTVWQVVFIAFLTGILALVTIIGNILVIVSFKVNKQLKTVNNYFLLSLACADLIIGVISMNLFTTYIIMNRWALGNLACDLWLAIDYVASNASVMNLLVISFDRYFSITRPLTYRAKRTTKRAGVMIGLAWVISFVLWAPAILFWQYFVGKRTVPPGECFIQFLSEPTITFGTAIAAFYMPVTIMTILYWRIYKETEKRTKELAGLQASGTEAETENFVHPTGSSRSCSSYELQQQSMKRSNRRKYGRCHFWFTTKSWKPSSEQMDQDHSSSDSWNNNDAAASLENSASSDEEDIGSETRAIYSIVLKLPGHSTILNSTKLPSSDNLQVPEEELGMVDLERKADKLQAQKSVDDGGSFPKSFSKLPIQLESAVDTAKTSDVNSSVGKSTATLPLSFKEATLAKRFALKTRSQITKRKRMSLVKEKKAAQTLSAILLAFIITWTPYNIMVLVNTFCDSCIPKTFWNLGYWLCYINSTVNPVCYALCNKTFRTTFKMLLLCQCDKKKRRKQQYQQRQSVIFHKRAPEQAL
Method: as §1, §2

beta 1 = target: T9, beta 1 (Homo sapiens, UniProt P08588); conditions: read-out: pEC50/pIC50 (converted)
T9 construct: expressed in transfected cells; host or cells: NIH3T3
T9 sequence (P08588 whole entry): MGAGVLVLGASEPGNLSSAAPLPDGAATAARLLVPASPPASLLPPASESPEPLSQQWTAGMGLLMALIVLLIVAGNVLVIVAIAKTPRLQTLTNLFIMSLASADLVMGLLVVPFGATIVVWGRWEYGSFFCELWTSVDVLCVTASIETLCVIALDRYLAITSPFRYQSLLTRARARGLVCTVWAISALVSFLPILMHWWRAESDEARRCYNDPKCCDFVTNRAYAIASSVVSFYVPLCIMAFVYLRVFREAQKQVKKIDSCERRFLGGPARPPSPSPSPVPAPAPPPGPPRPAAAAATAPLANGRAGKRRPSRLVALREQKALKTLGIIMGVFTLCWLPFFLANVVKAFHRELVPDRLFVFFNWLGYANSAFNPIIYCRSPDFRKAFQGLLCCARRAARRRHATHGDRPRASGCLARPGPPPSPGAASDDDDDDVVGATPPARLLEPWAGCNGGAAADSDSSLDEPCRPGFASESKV
Method: as §1, §2

T1 sequence (P32238 whole entry): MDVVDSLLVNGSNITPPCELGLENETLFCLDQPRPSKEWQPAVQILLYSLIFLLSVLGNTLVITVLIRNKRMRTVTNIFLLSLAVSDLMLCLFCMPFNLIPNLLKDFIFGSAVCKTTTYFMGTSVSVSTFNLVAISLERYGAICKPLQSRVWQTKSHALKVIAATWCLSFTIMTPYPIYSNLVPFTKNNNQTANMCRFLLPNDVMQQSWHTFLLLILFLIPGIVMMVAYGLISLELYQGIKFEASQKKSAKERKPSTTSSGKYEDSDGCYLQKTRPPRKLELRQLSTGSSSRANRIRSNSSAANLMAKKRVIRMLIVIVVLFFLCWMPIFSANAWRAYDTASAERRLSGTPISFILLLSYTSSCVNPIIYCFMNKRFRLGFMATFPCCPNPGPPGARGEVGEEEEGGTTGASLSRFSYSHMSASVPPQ

COc1ccc(CC(=O)N(Cc2ccc(C)cc2)C2CCN(C)CC2)cc1 [Example 50ELH27, 2-(4-Methoxyphenyl)-N-(4-methylbenzyl)-N-(1-methylpiperidin-4-yl)acetamide]
> 3.16 µM: EC50 (CCK-A) | EC50 (alpha 2B; agonist) | IC50 (alpha 2B; antagonist) | EC50 (D1; agonist) | IC50 (D1; antagonist) | EC50 (D3; agonist) | IC50 (D3; antagonist) | EC50 (m4; agonist) | IC50 (m4; antagonist) | EC50 (m1; agonist) | IC50 (m1; antagonist) | EC50 (NK-1) | EC50 (m3; agonist) | IC50 (m3; antagonist) | EC50 (beta 1; agonist) | IC50 (beta 1; antagonist)
